Measurements reported in ChEMBL document CHEMBL1142982, “Discovery of N-(4-(3-amino-1H-indazol-4-yl)phenyl)-N'-(2-fluoro-5-methylphenyl)urea (ABT-869), a 3-aminoindazole-based orally active multitargeted receptor tyrosine kinase inhibitor” (J Med Chem, 2007).
≈ marks a conversion by molar mass, not a printed value. Each block holds one compound with its values, some of them ahead of it.

Key:
[1] = AUC in CD1 mouse at 10 mg/kg, po; assay type: ADME, organism-based; design: dose 10 mg/kg, route oral; details: plasma
[2] = Oral bioavailability in CD1 mouse; assay type: ADME, organism-based; details: in vivo
[3] = Stability in human hepatocyte assessed as metabolic turnover after 6 hrs; assay type: ADME, cell-based; details: hepatocytes, read-out: Stability
[4] = Half life in Sprague-Dawley rat at 5 mg/kg, iv; assay type: ADME, organism-based; design: dose 5 mg/kg, route intravenous; details: in vivo
[5] = Volume of distribution in Sprague-Dawley rat at 5 mg/kg, iv; assay type: ADME, organism-based; design: dose 5 mg/kg, route intravenous; details: in vivo, read-out: Vdss
[6] = AUC in Sprague-Dawley rat at 5 mg/kg, po; assay type: ADME, organism-based; design: dose 5 mg/kg, route oral; details: plasma
[7] = Oral bioavailability n Sprague-Dawley rat at 5 mg/kg, po; assay type: ADME, organism-based; details: in vivo
[8] = Half life in cynomolgus monkey at […], iv; assay type: ADME, organism-based, Macaca fascicularis; design: dose 2.5 mg/kg, route intravenous; details: in vivo
[9] = Volume of distribution in cynomolgus monkey at […], iv; assay type: ADME, organism-based, Macaca fascicularis; design: dose 2.5 mg/kg, route intravenous; details: in vivo, read-out: Vdss
[10] = Clearance in cynomolgus monkey at […], iv; assay type: ADME, organism-based, Macaca fascicularis; design: dose 2.5 mg/kg, route intravenous; details: in vivo
[11] = AUC in cynomolgus monkey at […], po; assay type: ADME, organism-based, Macaca fascicularis; design: dose 2.5 mg/kg, route oral; details: plasma
[12] = Oral bioavailability in cynomolgus monkey at […], po; assay type: ADME, organism-based, Macaca fascicularis; details: in vivo
[13] = Half life in Beagle dog at […], iv; assay type: ADME, organism-based, Canis lupus familiaris; design: dose 2.5 mg/kg, route intravenous; details: in vivo
[14] = Volume of distribution in Beagle dog at […]; assay type: ADME, organism-based, Canis lupus familiaris; design: dose 2.5 mg/kg; details: in vivo, read-out: Vdss
[15] = Clearance in Beagle dog at […], iv; assay type: ADME, organism-based, Canis lupus familiaris; design: dose 2.5 mg/kg, route intravenous; details: in vivo
[16] = AUC in Beagle dog at […], po; assay type: ADME, organism-based, Canis lupus familiaris; design: dose 2.5 mg/kg, route oral; details: plasma
[17] = Oral bioavailability in Beagle dog at […], po; assay type: ADME, organism-based, Canis lupus familiaris; details: in vivo
[18] = Lipophilicity, log D at pH 7.4; assay type: physicochemical; details: buffer
[19] = Aqueous solubility at pH 7 at room temperature; assay type: physicochemical; details: buffer
[20] = Stability in mouse hepatocyte assessed as metabolic turnover after 6 hrs; assay type: ADME, cell-based; details: hepatocytes
[21] = Stability in dog hepatocyte assessed as metabolic turnover after 6 hrs; assay type: ADME, cell-based, Canis lupus familiaris; details: hepatocytes
[22] = Stability in monkey hepatocyte assessed as metabolic turnover after 6 hrs; assay type: ADME, cell-based, Macaca mulatta; details: rhesus monkey, hepatocytes
[23] = Clearance in Sprague-Dawley rat at 5 mg/kg, iv; details: in vivo

SMILES: Cc1cc(NC(=O)Nc2ccc(-c3cccc4[nH]nc(N)c34)cc2)ccc1F
- AUC [1]: 10.9 µM·h
- bioavailability [2]: 66%

SMILES: Cc1cccc(NC(=O)Nc2ccc(-c3cccc4c3c(N)nn4C)cc2)c1
- AUC [1]: 19.8 µM·h
- bioavailability [2]: 89%

SMILES: Cc1ccc(F)c(NC(=O)Nc2ccc(-c3cccc4[nH]nc(N)c34)cc2)c1 [LINIFANIB]
- metabolised at 6 h [3]: 91%
- AUC [1]: 24.5 µM·h
- bioavailability [2]: 100%
- half-life [4]: 3.6 h
- Vd [5]: 1.1 L/kg
- AUC [6]: 6800 ng·h/mL
- bioavailability [7]: 27%
- half-life [8]: 3.1 h
- Vd [9]: 2.2 L/kg
- clearance [10]: 8.2 mL/min/kg
- AUC [11]: 600 ng·h/mL
- bioavailability [12]: 10.6%
- half-life [13]: 2 h
- Vd [14]: 1.2 L/kg
- clearance [15]: 7.2 mL/min/kg
- AUC [16]: 1500 ng·h/mL
- bioavailability [17]: 47%
- logD [18]: 4.2
- Solubility [19]: 0.027 µg/mL (≈ 0.0719 µM)
- parent remaining at 6 h [20]: 91%
- parent remaining at 6 h [21]: 91%
- parent remaining at 6 h [22]: 91%
- clearance [23]: 3.3 mL/min/kg

SMILES: Cc1cccc(NC(=O)Nc2ccc(-c3ccc(OCCN4CCOCC4)c4[nH]nc(N)c34)cc2)c1
- AUC [1]: 1 µM·h
- bioavailability [2]: 20%

Second part, the compound after the results:

- AUC [1]: 6.5 µM·h
- bioavailability [2]: 38%
SMILES: Cc1cccc(NC(=O)Nc2ccc(-c3cccc4[nH]nc(N)c34)cc2)c1

- AUC [1]: 15 µM·h
- bioavailability [2]: 50%
SMILES: Nc1n[nH]c2cccc(-c3ccc(NC(=O)Nc4cccc(Cl)c4)cc3)c12
